Legend:
Assay type in all cases: in vivo, human
[1] = Moderate-Caffeine User Follow-Up, Profile of Mood States (POMS) survey; set-up: Fatigue / Vigor / Confusion / TMD / Tension / Esteem-related Affect: scale not given here; conditions: moderate-caffeine users; for TMD: total mood disturbance
Source text: (§1) The study included subjective tests (POMS and product questions) only. […] There were 7 male and 6 female participants with an average age of 39.5 years.

[2] = Low-Caffeine User Clinical Study, Profile of Mood States (POMS) survey; conditions: low-caffeine users
Source text: This study included subjective (POMS and product questions) and objective (CNSVS) tests.

[3] = Moderate-Caffeine User Follow-Up, product questions (statement agreement)
Source text: as §1

[4] = Moderate-Dose Caffeine Cohort (mean 338 mg/d), n = 12-13
[5] = Statement Agreement, Moderate-Dose Caffeine Cohort (mean 338 mg/d), n = 12-13

Cn1c(=O)c2c(ncn2C)n(C)c1=O [Caffeine, caffeine]
Confusion ([1]; n = 12-13, Post): 1.17 ± 2.92 | Depression ([1]; n = 12-13, Post): 1.17 ± 4.04 | Esteem-related Affect ([1]; n = 12-13, Post): 15.92 ± 3.15 | Fatigue ([1]; n = 12-13, Post): 2.25 ± 3.02 | Tension ([1]; n = 12-13, Post): 1.83 ± 3.54 | Fatigue ([1]; n = 12-13, Post, listed as caffeine): did not relieve | Confusion ([1]; n = 12-13, Pre): 2.25 ± 2.38 | Depression ([1]; n = 12-13, Pre): 1.50 ± 3.45 | Esteem-related Affect ([1]; n = 12-13, Pre): 14.42 ± 3.23 | Fatigue ([1]; n = 12-13, Pre): 5.58 ± 4.70 | Tension ([1]; n = 12-13, Pre): 3.00 ± 2.73 | Vigor ([1]; n = 12-13, Pre): 4.25 ± 2.93 | TMD ([1]; n = 12-13, Post): −17.17 ± 17.69 | TMD ([1]; n = 12-13, Pre): −4.92 ± 13.92 | Anger ([2]; n = 30, Post): 0.90 | Confusion ([2]; n = 30, Post): 1.20 | Depression ([2]; n = 30, Post): 0.60 | Esteem-related Affect ([2]; n = 30, Post): 14.63 | Fatigue ([2]; n = 30, Post): 2.77 | Tension ([2]; n = 30, Post): 2.80 | Vigor ([2]; n = 30, Post): 7.27 | Anger ([2]; n = 30, Pre): 1.55 | Confusion ([2]; n = 30, Pre): 2.93 | Depression ([2]; n = 30, Pre): 1.79 | Esteem-related Affect ([2]; n = 30, Pre): 13.59 | Fatigue ([2]; n = 30, Pre): 5.66 | Tension ([2]; n = 30, Pre): 4.48 | Vigor ([2]; n = 30, Pre): 5.69 | TMD ([2]; total mood disturbance, n = 30, Post): −13.63 | I am in a better mood after having taken the product, % Top 2 Box [3, 4]: 42% | I had no trouble recalling [things] after taking the product, % Top 2 Box [3, 4]: 58% | I was better able to focus after taking the product, % Top 2 Box [3, 4]: 58% | I was more alert after taking the product, % Top 2 Box [3, 4]: 58% | The product enhanced my ability to pay attention, % Top 2 Box [3, 4]: 58% | The product improved my energy levels, % Top 2 Box [3, 4]: 67% | I am in a better mood after having taken the product, Scores [3, 5]: 3.33 | I had no trouble recalling [things] after taking the product, Scores [3, 5]: 3.67 | I was better able to focus after taking the product, Scores [3, 5]: 3.25 | I was more alert after taking the product, Scores [3, 5]: 3.67 | The product enhanced my ability to pay attention, Scores [3, 5]: 3.50 | The product improved my energy levels, Scores [3, 5]: 3.75 | performance of treatment arms among those with moderate caffeine intake ([3]; moderate-caffeine users): performed better
